Patent US7456203B2, “Muscarinic receptor antagonists” (Theravance, Inc., priority 1999, dated 2008)

Assays:
[1] = system: oxotremorine response (intraluminal pressure of the bladder); test: In vivo bladder assay; parameters: species or system rat; details: 0.005-0.01 mg/kg, IV; after oxotremorine 0.3 mg/kg SC; anesthetized male Sprague-Dawley rats
Description: Male Sprague-Dawley rats weighing 250-300 g were anesthetized with urethane (1.3 g/kg, i.p.), inactin (25 mg/kg, i.p.), and xylazine (4 mg, i.p.). The jugular (or femoral) vein was isolated and ligated and a small incision was made in the vein distal to the ligation. […]
For data analysis, the oxotremorine response (zero inhibition) was determined by measuring the mean pressure 1 minute prior to the antagonist injection. Then, to assess antagonist inhibition, mean pressure was measured beginning at 1 minute and ending 2 minutes after antagonist administration. […] The percent inhibition by the antagonist can be determined by the ratio of the decrease from the zero to 100% values. • The formula is: oxotremorine mean−treatment mean*100 oxotremorine mean−atropine mean.

[2] = molecular target: T1, M3 receptor in bladder (Rattus norvegicus, UniProt P08483); test: Rat bladder in vitro binding assay, receptor block by selective ligand; details: bladder membranes
T1 construct: Membranes from rat bladder were prepared; from tissue; host or cells: rat bladder membranes
T1 sequence (P08483 whole entry): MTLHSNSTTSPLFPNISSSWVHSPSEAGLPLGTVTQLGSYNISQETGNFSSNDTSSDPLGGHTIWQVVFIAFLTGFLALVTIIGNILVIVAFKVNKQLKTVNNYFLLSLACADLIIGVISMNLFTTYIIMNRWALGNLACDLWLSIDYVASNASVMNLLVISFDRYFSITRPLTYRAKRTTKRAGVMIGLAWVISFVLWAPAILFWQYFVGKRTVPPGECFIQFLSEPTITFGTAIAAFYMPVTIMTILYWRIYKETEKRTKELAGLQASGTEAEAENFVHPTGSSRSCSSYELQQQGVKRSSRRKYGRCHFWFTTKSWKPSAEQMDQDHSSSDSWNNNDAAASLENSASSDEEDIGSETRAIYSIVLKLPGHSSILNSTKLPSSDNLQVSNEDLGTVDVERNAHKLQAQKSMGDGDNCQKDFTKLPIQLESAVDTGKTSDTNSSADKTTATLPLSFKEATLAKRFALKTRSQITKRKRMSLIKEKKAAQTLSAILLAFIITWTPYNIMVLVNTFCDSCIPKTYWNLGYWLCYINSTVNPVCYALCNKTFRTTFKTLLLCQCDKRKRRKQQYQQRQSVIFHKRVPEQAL
Description: (§1) Bladder was comprised of both M2 and M3 muscannic receptors. The ratio was typically 4:1 M2:M3. […] The following example illustrates the procedure for M3 bladder binding.
Membranes from rat bladder were prepared in a similar fashion to that used to isolate heart membrane above. […] To 50 μl of compound dilution in a 96-well assay plate was added an appropriate amount of rat heart membrane (usually 25 μl of membrane prep in 75 μl of 20 mM HEPES, 100 mM NaCl/10 mM MgCl2 at pH 7.5). The amount of membrane added depended in general on the results of signal optimization, and ranged from 12.5-25. Last, 50 μl of 2.12 nM 3H-N-methylscopolamine radioligand in compound dilution buffer was added. The total volume in each well was 200 μl. […] The filter plate was pre-blocked using 0.3% PEI for at least 15 mins., and then washed twice with 200 μl PBS. The assay plate was incubated for 1 hour at room temperature with gentle shaking. The contents of the assay plate was then transferred to the filter plate, and washed three times using 200 μl PBS. About 40 μl of scint was added to each well, the plate was allowed to sit at room temperature for 18 h, and then counted using a Packard Topcount NXT.

[3] = molecular target: T2, M2 receptor in bladder (Rattus norvegicus, UniProt P10980); test: as above; details: blocking ligand 2 μM; bladder membranes
T2 construct: Membranes from rat bladder were prepared; from tissue; host or cells: rat bladder membranes
T2 sequence (P10980 1-466): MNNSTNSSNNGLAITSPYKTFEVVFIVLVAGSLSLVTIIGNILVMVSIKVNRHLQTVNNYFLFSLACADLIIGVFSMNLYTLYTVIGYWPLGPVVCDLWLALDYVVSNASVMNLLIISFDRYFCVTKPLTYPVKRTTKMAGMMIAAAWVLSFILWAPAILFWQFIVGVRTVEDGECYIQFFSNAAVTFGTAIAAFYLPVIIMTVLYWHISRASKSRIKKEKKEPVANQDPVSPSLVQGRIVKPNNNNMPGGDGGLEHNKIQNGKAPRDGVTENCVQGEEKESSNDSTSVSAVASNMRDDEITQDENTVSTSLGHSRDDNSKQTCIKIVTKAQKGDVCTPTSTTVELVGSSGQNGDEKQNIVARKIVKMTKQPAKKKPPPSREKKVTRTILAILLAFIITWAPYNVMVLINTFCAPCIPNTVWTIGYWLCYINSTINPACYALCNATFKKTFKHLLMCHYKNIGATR
Description: as §1
Membranes from rat bladder were prepared in a similar fashion to that used to isolate heart membrane above. […] To 50 μl of compound dilution in a 96-well assay plate was added an appropriate amount of rat heart membrane (usually 25 μl of membrane prep in 75 μl of 20 mM HEPES, 100 mM NaCl/10 mM MgCl2 at pH 7.5). The amount of membrane added depended in general on the results of signal optimization, and ranged from 12.5-25. Last, 50 μl of 2.12 nM 3H-N-methylscopolamine radioligand in compound dilution buffer was added. The total volume in each well was 200 μl. The final concentration of methoctramine was 2 μM. The filter plate was pre-blocked using 0.3% PEI for at least 15 mins., and then washed twice with 200 μl PBS. The assay plate was incubated for 1 hour at room temperature with gentle shaking. The contents of the assay plate was then transferred to the filter plate, and washed three times using 200 μl PBS. About 40 μl of scint was added to each well, the plate was allowed to sit at room temperature for 18 h, and then counted using a Packard Topcount NXT.

**Q.** For CN1[C@@H]2CC[C@H]1C[C@@H](OC(=O)C(CO)c1ccccc1)C2 (some centres unmarked) [atropine], which “decrease in intraluminal pressure” value [1] is on record?
**A.** 30-70%

**Q.** For COc1ccccc1CNCCCCCCNCCCCCCCCNCCCCCCNCc1ccccc1OC [methoctramine, Methoctramine], which “block of the M3 receptor in bladder” value ([2]; final concentration of methoctramine 2 μM) is on record?
**A.** less than 40%

**Q.** And the “block of the M2 receptor in bladder” value [3]?
**A.** > 99%

**Q.** Which results are given for NC(=O)C(c1ccccc1)(c1ccccc1)[C@@H]1CCN(CCc2ccc3c(c2)CCO3)C1 [Darifenacin]?
**A.** block of M3 receptor ([2]; 2 μM Darifenacin): minimal; block of the M2 receptor in bladder [3]: > 99%
